{"source": "patent US20120149080A1", "about": "“YEAST PRODUCTION CULTURE FOR THE PRODUCTION OF BUTANOL” (Butamax(TM) Advanced Biofuels LLC, priority 2010, published 2012)", "key": {"[1]": {"system": "Saccharomyces cerevisiae BY4743", "assay": "24 hour survival (CFU) at low and high cell density", "assay_type": "cell-based", "procedure": "Saccharomyces cerevisiae BY4743 (ATCC 201390) was plated from a freezer vial onto YPD agar (Teknova, Hollister, Calif.; Cat. #Y1000) and incubated overnight at 30° C. Cells from the YPD plate were inoculated into a 25 ml pre-culture of YPD broth (Teknova; Cat. #Y5000) with an initial OD600 of 0.06 to 0.08. The pre-culture was grown for 7 hours in an aerobic shaker at 30° C. An aliquot of the pre-culture was inoculated into 200 ml of YPD broth, with an initial OD600 of 0.06 to 0.08, and this culture was incubated with aeration at 30° C. for approximately 17 hours. The optical density of the culture was measured, the culture was centrifuged and the cells were resuspended to yield an OD600 of 5 in fresh YPD broth. This is referred to as a high cell density (HCD) culture. […] This is referred to as a low the cell density (LCD) culture. These cultures were incubated at 30° C. with shaking for 30 minutes for an acclimation period. At the end of the 30 minute acclimation period, the OD600 was measured. 5 ml of low or high cell density culture was dispensed to 15 ml conical tubes which contained different concentrations of the alcohol to be tested. A control tube included no alcohol. The tubes were placed in a rotary drum at 30° C. and incubated for 24 hours. The time of addition of cells was referred to as “time 0”. […] Colony forming units (CFUs) were determined on YPD plates at time 0 for the control and at 24 hours for each of the cultures, including the control culture, using standard microbiological methods. […] Colonies were counted after 48 hours, and CFUs/ml were calculated. At time 0, the low cell density cultures had about 4.8×10^5 CFUs/ml, and the high cell density cultures had about 5.4×10^7 CFUs/ml."}, "[2]": {"system": "Yeast cultures", "conditions": "1% butanol", "procedure": "Survival was measured by assaying the number of colony forming units (CFU), which is a measure of live cells."}, "[3]": {"conditions": "2.0% (w/v) alcohol, high cell density"}, "[4]": {"conditions": "2.0% (w/v) alcohol, low cell density"}}, "note": "Read-outs that look alike come from different tables or passages of the source.", "data": [{"compound": "CCCCO", "note": "[1-Butanol, 1-butanol]", "values": [{"measurement": "Percent Survival HCD (%)", "setting": "[1]; 1.0% (w/v) alcohol, high cell density OD600 5", "result": 72.2, "unit": "%"}, {"measurement": "Percent Survival LCD (%)", "setting": "[1]; 1.0% (w/v) alcohol, low cell density OD600 0.05", "result": 1.3, "unit": "%"}, {"measurement": "Percent Survival HCD (%)", "setting": "[1]; 1.5% (w/v) alcohol, high cell density", "result": 57.3, "unit": "%"}, {"measurement": "Percent Survival LCD (%)", "setting": "[1]; 1.5% (w/v) alcohol, low cell density", "result": 0.4, "unit": "%"}, {"measurement": "Percent Survival HCD (%)", "setting": "[1]; [3]", "result": 3.6, "unit": "%"}, {"measurement": "Percent Survival LCD (%)", "setting": "[1]; [4]", "result": 0.1, "unit": "%"}]}, {"compound": "CCC(C)O", "note": "(centres unmarked) [2-Butanol, 2-butanol]", "values": [{"measurement": "Percent Survival HCD (%)", "setting": "[1]; [3]", "result": 27.6, "unit": "%"}, {"measurement": "Percent Survival LCD (%)", "setting": "[1]; [4]", "result": 0.3, "unit": "%"}, {"measurement": "Percent Survival HCD (%)", "setting": "[1]; 3% (w/v) alcohol, high cell density", "result": 18.9, "unit": "%"}, {"measurement": "Percent Survival LCD (%)", "setting": "[1]; 3% (w/v) alcohol, low cell density", "result": 0.1, "unit": "%"}, {"measurement": "Percent Survival HCD (%)", "setting": "[1]; 3.5% (w/v) alcohol, high cell density", "result": "<0.001", "unit": "%"}, {"measurement": "Percent Survival LCD (%)", "setting": "[1]; 3.5% (w/v) alcohol, low cell density", "result": "<0.001", "unit": "%"}]}, {"compound": "CCO", "note": "[Ethanol, ethanol]", "values": [{"measurement": "Percent Survival HCD (%)", "setting": "[1]; [3]", "result": 62.5, "unit": "%"}, {"measurement": "Percent Survival LCD (%)", "setting": "[1]; [4]", "result": 100.0, "unit": "%"}, {"measurement": "Percent Survival HCD (%)", "setting": "[1]; 4% (w/v) alcohol, high cell density", "result": 50.2, "unit": "%"}, {"measurement": "Percent Survival LCD (%)", "setting": "[1]; 4% (w/v) alcohol, low cell density", "result": 100.0, "unit": "%"}, {"measurement": "Percent Survival HCD (%)", "setting": "[1]; 5% (w/v) alcohol, high cell density", "result": 38.9, "unit": "%"}, {"measurement": "Percent Survival LCD (%)", "setting": "[1]; 5% (w/v) alcohol, low cell density", "result": 25.3, "unit": "%"}]}, {"compound": "butanol", "values": [{"measurement": "survival rate compared to control culture without butanol", "setting": "[2]; high cell density cultures", "result": "at least 40%"}, {"measurement": "survival rate compared to control culture without butanol", "setting": "[2]; low cell density cultures (100-fold fewer cells)", "result": "up to 13%"}]}]}
